Key:
[1] = tested on: MSI2; assay: Immunoblot of cellular MSI2 protein levels in PC9 cells; type: cell-based, human; conditions: PC9, 20 μM compound for 1, 3, 6, 24, or 48 hours
Source text: To explore the effect of these MSI2 inhibitors in a cancer-relevant cellular context, we selected two MSI2-dependent cancer cell lines: non-small cell lung cancer cell line PC9 and leukemia cell line K562 [73, 98–101]. Upon treatment of PC9 cells with Ro, R12–8–44–3, or negative control R12-neg, we found at multiple time points that cellular MSI2 protein levels were unchanged (Figure 6a). To confirm target engagement, we therefore adapted the cellular thermal shift assay (CETSA). To determine experimental conditions, we first harvested cells and incubated at increasing temperatures; we then removed aggregated protein by centrifugation and used Western blotting to probe the amount of MSI2 remaining in the soluble fraction (Figure 6b, Figure S9). Having established 49 °C as the midpoint of the transition under these (non-equilibrium) conditions, we then treated cells with our candidate MSI2 inhibitor for 3 h, and heated to 49 °C.
Figure 6: Direct cellular engagement of MSI2 interaction by R12–44–3. (A) Immunoblot from PC9 cells treated with Ro (positive control), R12-neg (negative control), or R12–8–44–3. Cells were treated with 20 μM compound for 1, 3, 6, 24, or 48 hours. MSI2 protein abundance was then quantified and normalized to untreated sample. One representative image is shown; quantification is presented as the average ± S.E.M. from 3 independent replicates. (B) Thermal-induced aggregation of cellular MSI2 in the PC9 cell line. Cells were briefly incubated at temperatures between 40 °C to 67 °C, then centrifuged and the amount of MSI2 remaining in the soluble fraction was quantified by Western blotting. […] One representative image is shown; quantification is presented as the average ± S.E.M. from 3 independent replicates, normalized first to beta-actin and then to DMSO control. […] One representative image is shown; quantification is presented as the average ± S.E.M. from 3 independent replicates, normalized first to beta-actin and then to DMSO control. […]

[2] = biological target: T1, MSI1 RRM1 (Homo sapiens, UniProt O43347); assay: Fluorescence polarization (FP) competition assay with fluorescein-labeled RNA; type: binding; conditions: for inhibition in FP competition assay: MSI1 RRM1, result in words
T1 sequence (O43347 20-110 limits assumed): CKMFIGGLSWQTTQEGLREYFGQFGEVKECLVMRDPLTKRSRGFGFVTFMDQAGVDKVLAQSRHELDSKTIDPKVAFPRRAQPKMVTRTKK
Source text: Figure 1: The hotspot mimicry approach. […] (A) The structure of the MSI1 / RNA complex. The RNA (sticks) wraps around the protein (spheres). Two adjacent bases, A106 and G107 (magenta), are buried in a shallow pocket on the protein surface. (B) An interaction map is generated from the RNA in the complex, by collecting deeply buried bases (magenta) and atoms involved in intermolecular hydrogen bonds (acceptors shown in yellow, donors in green). […] Positive values indicate diminished binding when a given base is replaced with an abasic site, showing that A106 and G107 contribute more than the other nearby bases to the binding affinity of this interaction. (E) The hotspot pharmacophore serves as a template for ligand-based screening, searching for compounds that would mimic the three-dimensional features of the pharmacophore. The screen led to the identification of compound R12, which mimics the geometry of the rings and provides three of the four desired hydrogen bonding groups. (F) R12 competes with fluorescein-labeled RNA for MSI1 binding, as observed through a fluorescence polarization assay. […] (G) Superposition of the hotspot pharmacophore back onto the protein structure illustrates the interactions that should be captured by an ideal ligand: stacking against three aromatic sidechains, and four intermolecular hydrogen bonds.
We applied our “hotspot mimicry” approach to the structure of Musashi-1 RRM1 bound to cognate RNA [54], and found a single hotspot pharmacophore derived from an adjacent pair of buried bases, Adenine106 and Guanine107 (Figure 1a). […] This pharmacophore captures both the aromatic stacking and the hydrogen bonding of the RNA hotspot through its inclusion of ring moieties and donor/acceptor positions, respectively (Figure 1c). To test whether these two particular bases indeed serve as a hotspot of the MSI1 RRM1 / RNA interaction, we used a fluorescence polarization (FP) competition assay (see Supporting Methods) to measure the binding affinity of RNA variants that maintained the backbone but lacked individual bases. […] In contrast, introduction of an abasic site at other nearby positions affected binding much less. Confirmation that A106 and G107 serve as hotspot bases of this interaction thus provided experimental evidence supporting the pharmacophore selection from our computational approach.

[3] = biological target: MSI2 (Homo sapiens, UniProt Q96DH6); assay: MS2-TRAP aptamer pull-down reporter assay in HEK293 cells; type: cell-based; set-up: HEK293 cells (with a high baseline MSI2 expression); endogenous in cells; host or cells: HEK293; conditions: HEK293, 24 h treatment; for total amount of MSI2 in cells: input prior to IP; for amount of Luc mRNA in cells (qPCR): prior to IP
Source text: Figure 5: Characterization of R12–8–44–3 in a reporter cell line. […] As a positive control, Ro 08–2750 (aka “Ro”) is also included in these studies. (B) Schematic of reporter assay. HEK293 cells are transfected with a plasmid encoding an arbitrary gene (Luc) with UAG repeats (to recruit MSI2) and MS2 repeats (for pulldown) appended to its 3’ UTR. The same vector also includes FLAG-labeled MS2-BP. Upon anti-FLAG immunoprecipitation (IP), the FLAG-labeled MS2-BP allows purification of the Luc mRNA along with any associated factors. (C) Prior to IP, cells express Luc mRNA to a similar extent irrespective of whether they were treated with DMSO, R12-neg, R12–8–44–3, or Ro. (D) Prior to IP (“input”), MSI2 is detected in all samples to a similar extent (as is KU-86 loading control). After pulldown of Luc mRNA, MSI2 is found associated with the mRNA in cells treated with DMSO or R12-neg, but not in cells that had been treated with R12–8–44–3 or Ro. Representative image is shown; quantification is plotted as the average of 2 independent experiments ± S.E.M. Statistical analysis was performed using unpaired two tailed t-test, with * indicating p<0.05. Uncropped Western blots from this experiment are provided as Figure S8.
To determine whether inhibition of MSI1/MSI2 by R12–8–44–3 would apply in a cellular context, we adapted an aptamer pull-down reporter assay that we previously used to validate candidate Musashi target genes. Briefly, our approach is a variation of the MS2-TRAP (MS2-tagged RNA affinity purification) method, which uses bacteriophage protein MS2-BP to extract from cells any factors that associate with RNAs containing a specific stem-loop structure (MS2) from the phage genome. Here, we designed an mRNA construct that would include a series of MS2 hairpins and also a MSI2 recognition sequence. We transfected this construct into cells that also express FLAG-tagged MS2-BP (a protein unrelated to MSI2). By affinity purification using the FLAG tag, proteins bound to the designed mRNA can be extracted from cells.
To test for inhibition of MSI2 in cells, we transfected HEK293 cells (with a high baseline MSI2 expression), with the pMS2-LUC-3’UTR from our previous studies. This vector appends onto the 3’UTR of an arbitrary gene (in this case luciferase) two key elements: UAG-motifs comprising a MSI2 recognition sequence, and a series of five MS2 hairpins. The same vector also encodes the FLAG-MS2-BP fusion needed for affinity purification (Figure 5b). Cells were then treated with each compound of interest for 24 h, and then the cells were subsequently harvested and used for anti-FLAG immunoprecipitation. […] Using qPCR we evaluated the amount of Luc mRNA in cells treated with R12–8–44–3, R12-neg, or Ro, and found this to be unchanged (Figure 5c).

[4] = Solubility as noted during FP testing; type: physicochemical; conditions: result in words
Source text: We then used this pharmacophore as a template for virtual screening. The 12 top-scoring hits identified from the resulting screen could each be classified into one of three diverse chemotypes (Figure S1). While none of these scaffolds bear any obvious resemblance in chemical structure to a nucleobase pair, the overlap in three-dimensional shape and hydrogen bonding potential between the hotspot pharmacophore and the modeled conformation of each compound is immediately evident. Despite this strong similarity, none of the 12 hit compounds recapitulated all four of the polar groups included in the hotspot pharmacophore, and only three hit compounds matched to three of the polar groups: R12 (Figure 1e), its close analog R4, and R7 (Figure S2).
(§1) Out of concern that R12–7’s activity may be associated with compound aggregation, we elected to continue with optimization of R12–8 (Figure 2b).

[5] = biological target: T1, MSI1 RRM1; assay: Differential Scanning Fluorimetry (DSF); type: binding; conditions: increasing compound dose
Source text: as §1
To further characterize R12–8–44–3, we applied differential scanning fluorimetry (DSF) as an orthogonal secondary assay. […] While this could be a sign of apparent inhibition occurring through aggregation, there are also legitimate inhibitors that reduce their target protein’s melting temperature. An alternate explanation could simply be that MSI1’s folding landscape is not simply two-state, and that a partially-folded intermediate stabilized by R12–8–44–3 affects the unfolding transition.

[6] = tested on: MSI1/MSI2; set-up: method as in PMID 31217428, PMID 36167829; conditions: in vitro; cited from earlier work
[7] = tested on: leukemia/lymphoma models; set-up: method as in PMID 31217428, PMID 36167829; conditions: in vivo leukemia/lymphoma models; cited from earlier work
[8] = tested on: PC9 cells; assay: CellTiter-Blue cell viability, PC9; type: cell-based, human; conditions: PC9, 3 days, dose-response
Experimental: (§2) Figure 7: Cellular characterization of MSI2 inhibition by R12–8–44–3. (A) Quantification of mRNA immunoprecipitation (RIP) results. Cells were treated with 10 μM of the indicated compounds for 8 hours. After immunoprecipitation with anti-MSI2, mRNA targets were quantified. The amount of each target mRNA in the pulldown was calculated relative to the input, and results from all targets were normalized to PTP4A1. Treating cells with R12–8–44–3 disrupted the interaction with all four cognate mRNAs (PTP4A, SMAD3, EGFR, and MSI2). Data are presented as the average ± S.E.M. from at least 3 independent replicates. […] Cells were treated with indicated compounds at two concentrations (5 μM and 20 μM) for 48 hours, then protein levels of relevant MSI2 targets were determined (EGFR, SMAD3, and MSI2). One representative image is shown; quantification is presented as the average ± S.E.M. from at least 3 independent replicates, normalized first to beta-actin and then to DMSO-treated cells. (C) Cell viability dose-response quantified by CellTiter-Blue after 3 days (left) and cell proliferation with 10μM of compounds quantified by clonogenic assay after 7 days (right). […] (D) Cell viability quantified by clonogenic assay of PC9 cell line after 7-day treatment with 2 nM osimertinib (osi alone), osimertinib with 10 μM R12–8–44–3, or osimertinib with 10 μM R12-neg. […]

[9] = tested on: PC9 cells; assay: Clonogenic assay, PC9; type: cell-based, human; conditions: PC9, 10 μM, 7 days
Experimental: as §2

Chain of MSI2 (Homo sapiens, UniProt Q96DH6) (Q96DH6 whole entry): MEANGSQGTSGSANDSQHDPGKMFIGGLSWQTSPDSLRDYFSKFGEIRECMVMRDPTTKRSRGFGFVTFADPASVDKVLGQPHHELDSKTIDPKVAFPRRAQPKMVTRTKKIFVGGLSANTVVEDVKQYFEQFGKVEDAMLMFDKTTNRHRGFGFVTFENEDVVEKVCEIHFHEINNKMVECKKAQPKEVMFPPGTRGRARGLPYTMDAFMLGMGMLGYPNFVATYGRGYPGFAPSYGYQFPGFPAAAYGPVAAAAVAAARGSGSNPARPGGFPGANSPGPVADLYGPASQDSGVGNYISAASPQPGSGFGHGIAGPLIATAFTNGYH

| inhibition in FP competition assay [2] | MSI2 purified with reporter mRNA (anti-FLAG pulldown) [3] | total amount of MSI2 in cells [3] | amount of Luc mRNA in cells (qPCR) [3] | SMILES | cellular MSI2 protein levels [1] | solubility [4] | change of the protein's melting temperature [5] | also measured |
| --- | --- | --- | --- | --- | --- | --- | --- | --- |
| inactive | does not disrupt MSI2 pulldown | unaffected | unchanged | Cc1sc2nc(COC(=O)c3cccc(Cl)c3Cl)nc(N)c2c1C [R12-neg] | unchanged | – | – | – |
| showed inhibition | – | – | – | Nc1nc(COC(=O)c2cncc(Br)c2)nc2ccccc12 [R12] | – | low solubility | – | – |
| – | – | – | – | COc1ccc(C(=O)OCc2nc(N)c3c(C)c(C)sc3n2)c(N)c1 [R12–8–44] | – | – | monotonically-increasing melting temperature with increasing ligand concentration | improvement in potency over parent compound ([2]; FP assay, MSI1 RRM1): more than ten-fold improvement in potency |
| – | much less MSI2 is purified | unaffected | unchanged | Cc1cc2nc3c(=O)[nH]c(=O)nc-3n(C)c2cc1C=O [Ro 08–2750, reference compound] | unchanged | – | – | inhibition of RNA-binding activity of MSI1/MSI2 [6]: inhibit the RNA-binding activity of MSI1/MSI2 in vitro; disease burden [7]: reduce disease burden; cell viability (CellTiter-Blue) [8]: dramatically diminishes cell viability; cell proliferation (clonogenic assay) [9]: dramatically diminishes cell viability |

| SMILES | inhibition in FP competition assay [2] | MSI2 purified with reporter mRNA (anti-FLAG pulldown) [3] | total amount of MSI2 in cells [3] | amount of Luc mRNA in cells (qPCR) [3] | cellular MSI2 protein levels [1] | solubility [4] | change of the protein's melting temperature [5] | also measured |
| --- | --- | --- | --- | --- | --- | --- | --- | --- |
| COc1ccc(C(=O)OCc2nc(N)c3ccccc3n2)c(N)c1 [R12–8] | superior inhibition and solubility than R12 | – | – | – | – | superior inhibition and solubility than R12 | monotonically increasing stabilization with increasing dose | – |

Source: publication PMC9882606, “Rationally designed inhibitors of the Musashi protein-RNA interaction by hotspot mimicry” (Research Square, 2023)
